Laboratory results published in PubChem BioAssay (NCI).
Where “and” joins values, the source holds several entries; their conditions need not be identical. Equal values may be shown once.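 Exposure lasted 48 hours, with cells grown in 96-well plates and compounds tested at five concentrations. GI50 = concentration required for 50% inhibition of growth. TGI denotes the concentration required for complete inhibition of growth.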

What was measured:
Experiment in all cases: inhibition of tumour cell growth, NCI panel, 48 h
[1] = test system: A498 renal
[2] = test system: SK-MEL-2 melanoma
[3] = test system: PC-3 prostate
[4] = test system: HCT-15 colon
[5] = test system: RXF 393 renal
[6] = test system: NCI-H226 lung
[7] = test system: IGROV1 ovarian
[8] = test system: CAKI-1 renal
[9] = test system: UACC-257 melanoma
[10] = test system: A549 NSCLC

| SMILES | GI50 [1] | TGI [1] | GI50 [2] | TGI [2] | GI50 [3] | TGI [3] | GI50 [4] | TGI [4] | GI50 [5] | TGI [5] | GI50 [6] | TGI [6] | GI50 [7] | TGI [7] | GI50 [8] | TGI [8] | GI50 [9] | TGI [9] | GI50 [10] | TGI [10] |
| --- | --- | --- | --- | --- | --- | --- | --- | --- | --- | --- | --- | --- | --- | --- | --- | --- | --- | --- | --- | --- |
| Cc1ccc(C(=O)NCCCOc2ccc(N3C(N)=NC(N)=NC3(C)C)cc2Cl)cc1S(=O)(=O)F | > 100 µM | > 100 µM | > 100 µM | > 100 µM | 5.9 µM | > 100 µM | > 100 µM | > 100 µM | > 100 µM | > 100 µM | > 100 µM | > 100 µM | 4.42 µM | > 100 µM | > 100 µM | > 100 µM | > 100 µM | > 100 µM | 39.5 µM | > 100 µM |
| N#Cc1ccc(-c2c(-c3ncn[nH]3)sc(N3CCOCC3)c2C#N)c(F)c1 | 0.0225 µM | 0.206 µM | 1.92 µM | 10.7 µM | 0.345 µM | 20.3 µM | 0.596 µM | 18.5 µM | 0.246 µM | 1.68 µM | 1.83 µM | 86.3 µM | 0.181 µM | 0.948 µM | 0.432 µM | 15.6 µM | 0.418 µM | 8.85 µM | 0.666 µM | 12.7 µM |
| CNCC/C=C1\c2cc3c(cc2-c2c1c1cc(OC)c(OC)cc1c(=O)n2C)OCO3 | 2.97 µM | 12 µM | 9.68 µM | > 100 µM | 0.534 µM | 10.3 µM | 0.585 µM | 13 µM | 1.51 µM | 14.9 µM | 0.232 µM | 2.11 µM | < 0.0505 µM |  | 0.278 µM | 5.92 µM | 3.13 µM | 12.4 µM | 1.85 µM | 18.8 µM |
| NCCCCCNc1noc(Cc2c[nH]c3cc(Br)ccc23)n1 | 1.76 µM | 10.7 µM | 3.22 µM | 16.3 µM | 3.2 µM | 45.7 µM | 0.834 µM | 17.9 µM | 1.54 µM | 5.17 µM | 12.7 µM | 26.5 µM | 5.09 µM | 27.4 µM | 6.84 µM | > 100 µM | 11.9 µM | 25.5 µM | 3.88 µM | 38.8 µM |
| CN1CCN(c2ccc(OC(F)(F)F)c(Nc3ncc4c(n3)-c3c(c(C(N)=O)nn3CCO)CC4)c2)CC1 | 0.0469 µM and 0.101 µM | 0.638 µM and 0.588 µM | 0.0543 µM | > 10 µM | 0.0663 µM and 0.0986 µM | > 82.4 µM | 0.213 µM and 0.266 µM | > 100 µM | 0.398 µM and 0.102 µM | 21 µM and > 10 µM | 4.26 µM and 1.21 µM | 50.4 µM and > 10 µM |  | 46.6 µM and > 10 µM | 0.584 µM and 0.831 µM | > 44.8 µM |  | 28.6 µM and > 6.61 µM | 0.0745 µM and 0.169 µM | 16 µM and > 10 µM |
| Cc1c(Cl)c(=O)oc2cc(OC/C=C3\CCC(=O)O3)ccc12 | 21.1 µM | 75.3 µM | 15.7 µM | 40.5 µM | 14.2 µM | 38.8 µM | 15.3 µM | 30 µM | 23.5 µM | > 100 µM | 34.6 µM | > 100 µM | 12.9 µM | 27.5 µM | 11.6 µM | 30.2 µM | 27.2 µM | 99 µM | 58.2 µM | > 100 µM |
| CC[C@@]1(OC(=O)C(N)CCCCN)C(=O)OCc2c1cc1n(c2=O)Cc2cc3ccccc3nc2-1 (some centres not stated) |  | 0.455 µM |  | 1.39 µM |  | > 100 µM |  | 15.6 µM |  | 0.861 µM |  | 2.7 µM |  | 2.37 µM |  | 0.158 µM |  | 1.56 µM |  | 2.81 µM |
| CCN(CC)c1c(-c2ccccc2)n[nH]c1C(=O)OC | 0.519 µM | 31.7 µM | 42.5 µM | > 100 µM | 31.2 µM | > 100 µM | 19 µM | 40.9 µM | 21.9 µM | 56.9 µM | 16.9 µM | 38.5 µM | 50.8 µM | > 100 µM | 25.8 µM | 55.5 µM | 12.6 µM | 36.5 µM | 31.6 µM | > 100 µM |
| CN(C)C(=O)OCc1nc2c(N3CCOCC3)nc(-c3ccccc3)nc2n1C | 1.34 µM | 2.68 µM | 1.77 µM | 3.43 µM | 0.507 µM | 1.31 µM | 0.22 µM | 0.561 µM | 0.566 µM | 1.68 µM | 1.69 µM | 3.65 µM | 0.618 µM | 1.92 µM | 0.45 µM | 1.7 µM | 1.36 µM | 2.93 µM | 1.56 µM | 3.75 µM |
| Cc1cc(-c2nnc(/C=C/c3ccc4c(c3)OCO4)o2)n[nH]1 | 7.54 µM | 40.7 µM | 12.1 µM | > 50 µM | 7.87 µM | > 50 µM | 11.4 µM | > 50 µM | 20.9 µM | > 50 µM | > 50 µM | > 50 µM | 9.57 µM | > 50 µM | 3.89 µM | > 50 µM | 23 µM | > 50 µM | 21.4 µM | > 50 µM |
| C=CC(COC(=O)C(C)(C)OC(C)=O)c1ccc(OC(=O)C(C)C)c(OC)c1 (configuration not stated) |  | 37.7 µM |  | 25.5 µM |  | 27 µM |  | 4.88 µM |  | 19.7 µM |  | 49.9 µM |  | 34.3 µM |  | 4.07 µM |  | 31.5 µM |  | 47.5 µM |
| O=C1Nc2cc(-c3cccc(O)c3)ccc2/C1=C/c1ccc[nH]1 | 1.48 µM | 4.1 µM | 1.48 µM | 6.77 µM | 2.53 µM | 10.7 µM | 0.271 µM | 12.7 µM | 0.476 µM | 2.73 µM | 2.79 µM | 11.4 µM | 1.01 µM | 10.1 µM | 1.79 µM | 5.91 µM | 2.81 µM | 8.53 µM | 3.05 µM | 11.8 µM |
| Cc1ccc(S(=O)(=O)OCC#CCOS(=O)(=O)c2ccc(C)cc2)cc1 | 4.34 µM | 11.7 µM | 3.07 µM | 9.66 µM | 1.79 µM | 3.6 µM | 3.2 µM | 14.9 µM | 2.22 µM | 5.21 µM | 5.83 µM | 12.9 µM | 0.992 µM | 2.86 µM | 0.512 µM | 1.5 µM | 1.92 µM | 4.07 µM | 4.85 µM | 19.8 µM |
| NC(=S)N=Nc1c(O)[nH]c2c(Cl)cc(Cl)cc12 |  | > 100 µM |  | 34.8 µM |  | 81.1 µM |  | > 100 µM |  | 33.7 µM |  | 30.3 µM |  | > 100 µM |  | > 100 µM |  | 86.2 µM |  | > 100 µM |
| CS(=O)(=O)Nc1cc(-c2ccc3ncnc(Nc4ccc(F)c(Cl)c4)c3c2)cnc1Cl | 0.199 µM and 0.13 µM | 0.664 µM and 0.555 µM | 0.289 µM and 0.441 µM | 1.53 µM and 2.32 µM | 0.594 µM and 0.562 µM | 5.2 µM and 7.02 µM | 0.559 µM and 0.542 µM | 11.2 µM and 11.6 µM | 0.563 µM and 0.31 µM | 4.07 µM and 1.71 µM | 1.63 µM and 1.33 µM | 22.9 µM and 13.7 µM | 0.114 µM | 0.495 µM | 0.455 µM and 0.326 µM | 9.55 µM and 2.23 µM | 0.503 µM and 0.706 µM | 7.55 µM and 10.4 µM | 1.14 µM and 1.26 µM | 4.67 µM and 5.81 µM |
| O=C(Nc1cccc(-n2cc(-c3ccncc3)c(-c3ccc(O)c(Cl)c3)n2)c1)c1ccc2c(c1)OCCO2 | > 100 µM | > 100 µM | > 100 µM | > 100 µM | 7.3 µM | > 100 µM | 3.7 µM | > 100 µM | 3.02 µM | > 100 µM | 12.2 µM | > 100 µM | > 100 µM | > 100 µM | 6.34 µM | > 100 µM | > 100 µM | > 100 µM | 5.85 µM | > 100 µM |
| O=C(NCCc1ccccc1)Nc1ccc2cc3ccc(NC(=O)NCCc4ccccc4)cc3nc2c1 | 1.35 µM | 8.44 µM | 1.39 µM | 3 µM | 1.63 µM | 3.59 µM | > 100 µM | > 100 µM | 1.32 µM | 6.49 µM | 1.95 µM | 5.85 µM | 1.44 µM | 3.97 µM | 4.65 µM | > 100 µM | 1.86 µM | 4.07 µM | 3.16 µM | 14.7 µM |
| COc1ccc(/C(C)=N/NC(=O)CSc2nc3ccccc3c(=O)n2CCc2ccc(S(N)(=O)=O)cc2)cc1 | 2.1 µM | 4.12 µM | 2.58 µM | 6.68 µM | 1.98 µM | 4.15 µM | 4.7 µM | 63.7 µM | 1.72 µM | 3.29 µM | 1.95 µM | 4.18 µM | 1.97 µM | 3.98 µM | 2.07 µM | 4.53 µM | 2.39 µM | 5.57 µM | 2.1 µM | 4 µM |
| CC1=C(/C=C/C(=O)CC(=O)/C=C/C2=C(C)CCCC2(C)C)C(C)(C)CCC1 | 51.7 µM | > 100 µM | 20.3 µM | 77.8 µM | 17.6 µM | 75.2 µM | 30.8 µM | > 100 µM | 4.38 µM | 16 µM | 23.3 µM | > 100 µM | 21 µM | 88.5 µM | 19.1 µM | > 100 µM | 20.6 µM | 63.5 µM | 34.2 µM | > 100 µM |
